Assay results from patent publication US20220031815A1, “ANIMAL FEED COMPOSITION AND USE THEREOF” (DSM IP ASSETS B.V., priority 2018, published 2022).

Test system: male broiler chickens (Cobb-500)
Assay: In vivo broiler trial 1: growth performance under litter/density challenge
Method: The trial was performed at Poultrz section, INTA-EEA Pergamino, Buenos Aires, Argentina from Aug. 15, 2017 to Oct. 3, 2017. Day-old male broiler chickens (“Cobb-500”), were supplied by a commercial hatchery (Granja Tres Arroyos, Tres Arroyos 378, Buenos Aires, Argentina).
Birds were housed in a conventional barn (netting open sides with curtains) into floor pens with shaving wood as litter. Gas heaters, fans and foggers were used to control the barn temperature.
All birds were weighed, separated in categories of 1 g and distributed to form homogenous lots. Birds of extreme weights were excluded.
Feed and waer were providing ad-libitum.
The experimental diets (Starter, Growing, Finisher and last week) were based on corn, soybean meal as main ingredients (Table 3). Phytase (RONOZYME® HiPhos GT, dose 1000 FYT/kg of feed, 100 g/tn of feed) was used in all the treatments. Rovimix broilders from DSM was used as vitamin-mineral premix, and maduramycin as coccidiostat. The composition of the feed was listed as Table 4
Individual body weight and pen feed intake were determined weekly.
Based on this information feed conversion and weight gain were calculated considering each phase and the complete cycle.
The live weight/feed conversion ratio was used. This is a simplification to avoid the impact of mortality when a low number of birds per pen is used (18 in this experiment).
Uniformity (% of birds included in a range of weights of […] of the pen mean body weight) was determined in each pen at 48 days of age.

## Enramycin
Enramycin significant from day 35, muramidase at day 7 and from day 21
  effect on feed conversion: the feed conversion was improved
Effect of inclusion in feed (Enramycin 10 ppm; Muramidase 392 ppm)
  reduction of days to reach the slaughtering weight (2800 g): 1.1 days
Significant from day 21
  effect on body weight: an increment in body weight was observed
